Read-outs that look alike come from different tables or passages of the source.
Tests used:
Format in all cases: cell-based
ATR kinase = biological target: T1, ATR kinase (Homo sapiens, UniProt Q13535); assay: Assay b): ATR cellular potency (pChk1 Ser345 in HT29 cells after 4NQO)
T1 construct: endogenous in cells; host or cells: HT29 cells (ECACC #85061109)
Outline: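 HT29 cells were preincubated with compound for 1 h at 37 °C, 5% CO2, then stimulated with 4NQO for a further 1 h; wells without 4NQO served as the null control. Cells permeabilised with 0.1% Triton X-100. Chk1 Ser345 phosphorylation imaged on ArrayScan VTI at 10× objective.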

PI3K-α = PI3K-α (Homo sapiens, UniProt P42336); assay: Assay c): PI3K cellular potency (phospho-Akt T308 ELISA in BT474 cells); conditions: for IC50: BT474 cells, phospho-Akt T308, 2 h; Table 2; read-out: Assay c) PI3Kα Cell IC50; for Assay c) PI3Ka Cell IC50: BT474 cells, phospho-Akt T308, 2 h, Table 3 comparative data
Excerpt: This assay was used to measure PI3K-α inhibition in cells. PDK1 was identified as the upstream activation loop kinase of protein kinase B (Akt1), which is essential for the activation of PKB. Activation of the lipid kinase phosphoinositide 3 kinase (PI3K) is critical for the activation of PKB by PDK1.
Following ligand stimulation of receptor tyrosine kinases, PI3K is activated, which converts PIP2 to PIP3, which is bound by the PH domain of PDK1 resulting in recruitment of PDK1 to the plasma membrane where it phosphorylates AKT at Thr308 in the activation loop.
The aim of this cell-based mode of action assay is to identify compounds that inhibit PDK activity or recruitment of PDK1 to membrane by inhibiting PI3K activity. Phosphorylation of phospho-Akt (T308) in BT474c cells following treatment with compounds for 2 h is a direct measure of PDK1 and indirect measure of PI3K activity.
BT474 cells (human breast ductal carcinoma, ATCC HTB-20) were seeded into black 384 well plates (Costar, #3712) at a density of 5600 cells/well in DMEM containing 10% FBS and 1% glutamine and allowed to adhere overnight.
The following morning compounds in 100% DMSO were added to assay plates by acoustic dispensing. After a 2 h incubation at 37° C. and 5% CO2, the medium was aspirated and the cells were lysed with a buffer containing 25 mM Tris, 3 mM EDTA, 3 mM EGTA, 50 mM sodium fluoride, 2 mM Sodium orthovanadate, 0.27M sucrose, 10 mM β-glycerophosphate, 5 mM sodium pyrophosphate, 0.5% Triton X-100 and complete protease inhibitor cocktail tablets (Roche #04 693 116 001, used 1 tab per 50 ml lysis buffer).
After 20 minutes, the cell lysates were transferred into ELISA plates (Greiner #781077) which had been pre-coated with an anti total-AKT antibody in PBS buffer and non-specific binding was blocked with 1% BSA in PBS containing 0.05% Tween 20. Plates were incubated over night at 4° C. The next day the plates were washed with PBS buffer containing 0.05% Tween 20 and further incubated with a mouse monoclonal anti-phospho AKT T308 for 2 h. Plates were washed again as above before addition of a horse anti-mouse-HRP conjugated secondary antibody. Following a 2 h incubation at r.t., plates were washed and QuantaBlu substrate working solution (Thermo Scientific #15169, prepared according to provider's instructions) was added to each well. The developed fluorescent product was stopped after 60 minutes by addition of Stop solution to the wells. Plates were read using a Tecan Safire plate reader using 325 nm excitation and 420 nm emission wavelengths respectively. Except where specified, reagents contained in the Path Scan Phospho AKT (Thr308) sandwich ELISA kit from Cell Signalling (#7144) were used in this ELISA assay.

mTOR = biological target: T2, mTOR (Homo sapiens, UniProt P42345); assay: Assay d): mTOR cellular potency (phospho-AKT Ser473 in MDA-MB-468 cells)
T2 construct: phosphorylation of the Akt protein at Ser473 (AKT lies downstream of PI3Kα in the signal transduction pathway) in the MDA-MB-468 cells; endogenous in cells; host or cells: MDA-MB-468 cells (ATCC HTB 132)
Description: This assay was used to measure mTOR inhibition in cells. The aim of the phospho-AKT cell based mechanism of action assay using the Acumen Explorer is to identify inhibitors of either PI3Kα or mTOR-Rictor (Rapamycin insensitive companion of mTOR). This is measured by any decrease in the phosphorylation of the Akt protein at Ser473 (AKT lies downstream of PI3Kα in the signal transduction pathway) in the MDA-MB-468 cells following treatment with compound.
MDA-MB-468 cells (human breast adenocarcinoma #ATCC HTB 132) were seeded at 1500 cells/well in 40 μl of DMEM containing 10% FBS and 1% glutamine into Greiner 384 well black flat-bottomed plates. Cell plates were incubated for 18 h in a 37° C. incubator before dosing with compounds of Formula (I) in 100% DMSO using acoustic dispensing. Compounds were dosed in a 12 point concentration range into a randomised plate map. Control wells were generated either by dosing of 100% DMSO (max signal) or addition of a reference compound (a PI3K-βinhibitor) that completely eliminated the pAKT signal (min control). Plates were incubated at 37° C. for 2 h; cells were then fixed by the addition of 10 μl of a 3.7% formaldehyde solution. After 30 minutes the plates were washed with PBS using a Tecan PW384 plate washer. Wells were blocked and cells permeabilised with the addition of 40 μl of PBS containing 0.5% Tween20 and 1% Marvel™ (dried milk powder) and incubated for 60 minutes at r.t. The plates were washed with PBS containing 0.5% (v/v) Tween20 and 20 μl rabbit anti-phospho AKT Ser473 (Cell Signalling Technologies, #3787) in same PBS-Tween+1% Marvel™ was added and incubated overnight at 4° C.
Plates were washed 3 times with PBS+0.05% Tween 20 using a Tecan PW384. 20 μl of secondary antibody Alexa Fluor 488 anti-Rabbit (Molecular Probes, #A11008) diluted in PBS+0.05% Tween20 containing 1% Marvel™ was added to each well and incubated for 1 h at r.t. Plates were washed three times as before then 20 μl PBS added to each well and plates sealed with a black plate sealer.
The plates were read on an Acumen plate reader as soon as possible, measuring green fluorescence after excitation with 488 nm laser. Using this system IC50 values were generated and quality of plates was determined by control wells. Reference compounds were run each time to monitor assay performance.

ATM kinase = biological target: T3, ATM kinase (Homo sapiens, UniProt Q13315); assay: Assay a): ATM cellular potency (pATM Ser1981 in irradiated HT29 cells)
T3 construct: endogenous in cells; host or cells: HT29 cells (ECACC #85061109)
Outline: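 HT29 cells pretreated with compound for 1 h at 37° C, X-ray irradiated (~600 cGy), then incubated 1 h more. Cells fixed, Triton-permeabilised and immunostained for pATM Ser1981; fluorescence quantified by ArrayScan high-content imaging.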

[1] = HT29 cells, 4NQO, pChk1 Ser345; Table 2; read-out: Assay b) ATR Cell IC50
[2] = MDA-MB-468 cells, phospho-AKT Ser473, 2 h; Table 2; read-out: Assay d) mTOR Cell IC50
[3] = HT29 cells, X-ray irradiation, pATM Ser1981; Table 2; read-out: Assay a) ATM Cell IC50
[4] = HT29 cells, X-ray irradiation, pATM Ser1981; Table 3 comparative data; read-out: Assay a) ATM Cell IC50
[5] = HT29 cells, 4NQO, pChk1 Ser345; Table 3 comparative data; read-out: Assay b) ATR Cell IC50
[6] = MDA-MB-468 cells, phospho-AKT Ser473, 2 h; Table 3 comparative data; read-out: Assay d) mTOR Cell IC50

T1 sequence (Q13535 whole entry): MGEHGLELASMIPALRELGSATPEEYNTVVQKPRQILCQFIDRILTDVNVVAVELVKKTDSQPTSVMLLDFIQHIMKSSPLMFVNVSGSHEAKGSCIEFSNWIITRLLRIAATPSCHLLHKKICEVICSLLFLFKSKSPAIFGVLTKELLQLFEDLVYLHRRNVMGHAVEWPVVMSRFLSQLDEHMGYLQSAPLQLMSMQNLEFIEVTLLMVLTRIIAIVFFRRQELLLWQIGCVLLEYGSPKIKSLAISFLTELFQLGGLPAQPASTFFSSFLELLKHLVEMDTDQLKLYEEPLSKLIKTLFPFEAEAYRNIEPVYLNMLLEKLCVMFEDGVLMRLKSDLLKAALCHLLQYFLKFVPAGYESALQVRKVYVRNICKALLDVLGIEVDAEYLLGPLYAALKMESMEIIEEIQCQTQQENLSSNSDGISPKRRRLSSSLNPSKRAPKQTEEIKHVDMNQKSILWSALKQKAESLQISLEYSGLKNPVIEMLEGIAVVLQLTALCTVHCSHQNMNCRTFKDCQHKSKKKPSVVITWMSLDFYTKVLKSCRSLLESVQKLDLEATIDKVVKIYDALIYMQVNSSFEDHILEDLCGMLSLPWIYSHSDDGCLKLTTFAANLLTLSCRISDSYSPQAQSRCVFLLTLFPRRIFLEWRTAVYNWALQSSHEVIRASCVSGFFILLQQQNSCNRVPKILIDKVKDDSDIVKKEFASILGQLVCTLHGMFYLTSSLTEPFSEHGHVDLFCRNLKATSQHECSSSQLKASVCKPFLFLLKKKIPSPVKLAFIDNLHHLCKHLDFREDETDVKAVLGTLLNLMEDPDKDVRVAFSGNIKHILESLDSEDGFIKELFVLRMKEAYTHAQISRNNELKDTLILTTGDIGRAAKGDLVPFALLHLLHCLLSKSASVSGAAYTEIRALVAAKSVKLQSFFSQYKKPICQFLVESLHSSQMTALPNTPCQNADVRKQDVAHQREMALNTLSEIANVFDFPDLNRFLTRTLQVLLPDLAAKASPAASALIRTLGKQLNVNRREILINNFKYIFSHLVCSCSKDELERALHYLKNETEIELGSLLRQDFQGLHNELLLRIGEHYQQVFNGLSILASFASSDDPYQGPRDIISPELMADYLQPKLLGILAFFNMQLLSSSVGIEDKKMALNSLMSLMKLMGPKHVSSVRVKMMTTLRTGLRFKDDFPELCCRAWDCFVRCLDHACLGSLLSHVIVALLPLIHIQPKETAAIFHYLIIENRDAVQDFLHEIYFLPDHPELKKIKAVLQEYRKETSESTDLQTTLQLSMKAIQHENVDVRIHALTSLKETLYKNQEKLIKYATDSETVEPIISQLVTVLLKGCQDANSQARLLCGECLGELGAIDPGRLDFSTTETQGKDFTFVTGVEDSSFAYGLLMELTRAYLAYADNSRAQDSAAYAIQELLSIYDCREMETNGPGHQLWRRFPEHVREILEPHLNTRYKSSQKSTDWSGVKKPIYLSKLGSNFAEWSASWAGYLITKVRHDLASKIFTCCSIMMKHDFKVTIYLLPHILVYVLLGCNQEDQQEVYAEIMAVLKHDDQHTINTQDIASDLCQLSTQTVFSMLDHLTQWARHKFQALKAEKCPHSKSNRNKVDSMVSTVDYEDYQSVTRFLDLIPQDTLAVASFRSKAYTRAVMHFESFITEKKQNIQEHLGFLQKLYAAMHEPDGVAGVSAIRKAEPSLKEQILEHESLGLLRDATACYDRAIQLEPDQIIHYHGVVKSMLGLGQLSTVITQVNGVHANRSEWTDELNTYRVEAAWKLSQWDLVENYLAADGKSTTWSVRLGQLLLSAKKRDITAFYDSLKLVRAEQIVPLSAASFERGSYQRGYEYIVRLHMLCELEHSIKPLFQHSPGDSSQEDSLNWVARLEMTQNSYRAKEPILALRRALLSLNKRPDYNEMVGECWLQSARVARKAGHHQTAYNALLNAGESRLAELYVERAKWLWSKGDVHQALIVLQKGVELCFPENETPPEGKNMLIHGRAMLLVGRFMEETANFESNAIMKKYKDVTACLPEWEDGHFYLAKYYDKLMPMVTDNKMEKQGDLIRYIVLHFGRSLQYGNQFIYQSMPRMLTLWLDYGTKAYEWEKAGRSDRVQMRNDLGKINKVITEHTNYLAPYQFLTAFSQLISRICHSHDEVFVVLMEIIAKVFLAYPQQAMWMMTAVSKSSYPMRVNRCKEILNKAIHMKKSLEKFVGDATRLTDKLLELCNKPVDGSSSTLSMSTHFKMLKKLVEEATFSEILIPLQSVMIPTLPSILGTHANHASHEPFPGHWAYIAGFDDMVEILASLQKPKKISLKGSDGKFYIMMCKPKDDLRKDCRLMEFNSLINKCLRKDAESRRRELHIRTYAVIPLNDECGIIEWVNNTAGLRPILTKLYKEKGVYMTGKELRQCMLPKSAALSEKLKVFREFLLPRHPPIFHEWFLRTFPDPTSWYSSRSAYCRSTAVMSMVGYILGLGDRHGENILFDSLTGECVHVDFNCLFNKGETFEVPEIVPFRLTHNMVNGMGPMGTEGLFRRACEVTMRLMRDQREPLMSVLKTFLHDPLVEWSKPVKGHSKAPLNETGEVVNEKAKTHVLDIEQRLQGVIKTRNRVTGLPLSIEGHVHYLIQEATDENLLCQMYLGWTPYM
T1 sequence (Q8WXE1 whole entry partner): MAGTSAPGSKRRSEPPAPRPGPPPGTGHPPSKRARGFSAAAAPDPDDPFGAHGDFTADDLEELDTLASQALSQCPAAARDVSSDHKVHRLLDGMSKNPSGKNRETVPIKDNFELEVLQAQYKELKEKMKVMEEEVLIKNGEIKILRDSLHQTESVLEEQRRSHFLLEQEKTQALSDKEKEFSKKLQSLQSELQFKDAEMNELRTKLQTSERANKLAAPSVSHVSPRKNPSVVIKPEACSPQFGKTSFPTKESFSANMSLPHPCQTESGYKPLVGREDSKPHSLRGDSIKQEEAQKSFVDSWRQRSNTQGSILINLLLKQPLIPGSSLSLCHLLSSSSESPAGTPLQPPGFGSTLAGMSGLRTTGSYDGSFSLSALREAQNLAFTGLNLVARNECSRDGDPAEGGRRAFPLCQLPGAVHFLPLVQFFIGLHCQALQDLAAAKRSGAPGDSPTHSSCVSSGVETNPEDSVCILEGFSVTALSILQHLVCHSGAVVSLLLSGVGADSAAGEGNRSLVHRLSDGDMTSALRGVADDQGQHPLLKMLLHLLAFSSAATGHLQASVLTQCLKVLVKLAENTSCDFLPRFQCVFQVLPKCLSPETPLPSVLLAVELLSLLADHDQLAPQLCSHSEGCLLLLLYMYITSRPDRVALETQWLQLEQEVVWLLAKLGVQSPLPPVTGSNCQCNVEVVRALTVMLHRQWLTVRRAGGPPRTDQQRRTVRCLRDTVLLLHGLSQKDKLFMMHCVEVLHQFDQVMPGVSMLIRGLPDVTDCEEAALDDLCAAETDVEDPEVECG

| IC50 (ATR kinase; [1]) [nM] | IC50 (PI3K-α) [nM] | IC50 (mTOR; [2]) [nM] | IC50 (ATM kinase; [3]) [nM] | SMILES | IC50 (ATM kinase; [4]) [nM] | IC50 (ATR kinase; [5]) [nM] | Assay c) PI3Ka Cell IC50 (PI3K-α) [nM] | IC50 (mTOR; [6]) [nM] |
| --- | --- | --- | --- | --- | --- | --- | --- | --- |
| > 30000 | 311 | 1420 | – | CN(C)CCCOc1ccc(-c2ccc3ncc4c(c3c2)n([C@@H]2CCCOC2)c(=O)n4C)cc1 [Example 8, 8-[4-[3-(dimethylamino)propoxy]phenyl]-3-methyl-1-[(3R)-tetrahydropyran-3-yl]imidazo[4,5-c]quinolin-2-one] | – | – | – | – |
| > 30000 | 20400 | 5560 | 1.88 | CO[C@H]1C[C@@H](n2c(=O)n(C)c3cnc4cc(F)c(-c5ccc(OCCCN(C)C)cc5)cc4c32)C1 [Example 12, 8-[4-[3-(dimethylamino)propoxy]phenyl]-7-fluoro-1-(cis3-methoxycyclobutyl)-3-methyl-imidazo[4,5-c]quinolin-2-one] | – | – | – | – |
| – | – | – | – | Cn1c(=O)n(C2CNC2)c2c3cc(-c4cnc5[nH]ccc5c4)ccc3ncc21 [CN102399218A Compound 61, reference compound] | 3460 | 1480 | 1730 | 177 |
| – | – | – | – | Cn1c(=O)n(C2CCOCC2)c2c3cc(-c4cnc(N)nc4)ccc3ncc21 [CN102399218A Compound 94, reference compound] | 494 | 12.9 | 80.4 | 41.4 |
| > 30000 | > 26900 | – | 14.8 | CC(C)n1c(=O)n(C)c2cnc3ccc(-c4ccc(OCCN(C)C)cc4)cc3c21 [Example 5, 8-[4-[2-(Dimethylamino)ethoxy]phenyl]-1-isopropyl-3-methyl-imidazo[4,5-c]quinolin-2-one] | – | – | – | – |
| > 30000 | 15200 | – | – | CN(C)CCCOc1ccc(-c2ccc3ncc4c(c3c2)n([C@H]2CCCOC2)c(=O)n4C)cc1 [Example 9, 8-[4-[3-(dimethylamino)propoxy]phenyl]-3-methyl-1-[(3S)-tetrahydropyran-3-yl]imidazo[4,5-c]quinolin-2-one] | – | – | – | – |
| > 30000 | > 30000 | 5530 | 14.4 | CN(C)CCOc1ccc(-c2ccc3ncc4c(c3c2)n([C@H]2CCCOC2)c(=O)n4C)cc1 [Example 47, 8-[4-[2-(Dimethylamino)ethoxy]phenyl]-3-methyl-1-[(3S)-tetrahydropyran-3-yl]imidazo[4,5-c]quinolin-2-one] | – | – | – | – |
| – | – | – | – | Cn1c(=O)n(C2CC2)c2c3cc(-c4cnc5[nH]ccc5c4)ccc3ncc21 [CN102399218A Compound 62, reference compound] | 80 | 56.3 | 149 | 15.5 |
| – | – | – | – | COc1ncc(-c2ccc3ncc4c(c3c2)n(C2CC2)c(=O)n4C)cc1NS(=O)(=O)C1CC1 [CN102399218A Compound 114, reference compound] | 74.1 | 68.6 | 13.1 | 46.9 |
| – | – | – | – | COc1ccc(-c2ccc3ncc4c(c3c2)n(C2CCN(C(C)=O)CC2)c(=O)n4C)cn1 [CN102372711A Compound 5, reference compound] | 26.5 | 64.4 | 153 | 113 |
| – | – | – | – | COc1ccc(-c2ccc3ncc4c(c3c2)n(C2CCNCC2)c(=O)n4C)cn1 [CN102372711A Compound 1, reference compound] | – | 281 | 188 | 237 |
| – | – | – | – | Cn1c(=O)n(C2CC2)c2c3cc(-c4cnc(N)nc4)ccc3ncc21 [CN102399218A Compound 64, reference compound] | 216 | 162 | 247 | 287 |
